Assays:
[1] = target: Tissue-type plasminogen activator (Homo sapiens, UniProt P00750); assay: Inhibition of tPA (unknown origin) using Methylsulfonyl-D-Phe-Gly-Arg-pNA as substrate preincubated for 30 mins followed by substrate addition
[2] = Inhibition of bovine trypsin using S-2765 as substrate incubated for 30 mins followed by substrate addition; design: species or system Bos taurus
[3] = target: T1, Coagulation factor XII (Homo sapiens, UniProt P00748); assay: Inhibition of factor 12a (unknown origin) using D-Pro-Phe-Arg-pNA as substrate preincubated for 30 mins followed by substrate addition
T1 sequence (P00748 whole entry): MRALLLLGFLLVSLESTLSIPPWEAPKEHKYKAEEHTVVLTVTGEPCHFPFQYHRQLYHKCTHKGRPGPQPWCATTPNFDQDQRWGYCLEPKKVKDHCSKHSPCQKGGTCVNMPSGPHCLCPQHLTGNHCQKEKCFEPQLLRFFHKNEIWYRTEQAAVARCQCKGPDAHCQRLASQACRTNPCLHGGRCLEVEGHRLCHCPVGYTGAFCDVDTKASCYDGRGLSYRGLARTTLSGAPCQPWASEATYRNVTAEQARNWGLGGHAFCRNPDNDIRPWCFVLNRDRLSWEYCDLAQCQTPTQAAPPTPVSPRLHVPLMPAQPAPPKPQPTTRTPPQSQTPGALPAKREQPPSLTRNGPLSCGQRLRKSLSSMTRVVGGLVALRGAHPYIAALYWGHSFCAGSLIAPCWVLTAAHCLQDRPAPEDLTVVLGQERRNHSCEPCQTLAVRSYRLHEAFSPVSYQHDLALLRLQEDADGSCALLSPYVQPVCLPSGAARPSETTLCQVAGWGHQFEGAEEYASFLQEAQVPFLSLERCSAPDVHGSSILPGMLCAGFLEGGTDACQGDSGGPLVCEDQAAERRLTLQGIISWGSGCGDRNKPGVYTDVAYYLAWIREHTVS

[4] = target: Coagulation factor XI (Homo sapiens, UniProt P03951); assay: Inhibition of factor 11a (unknown origin) using S-2366 as substrate incubated for 30 mins followed by substrate addition
Sequence of Coagulation factor XI (P03951 19-387 limits assumed): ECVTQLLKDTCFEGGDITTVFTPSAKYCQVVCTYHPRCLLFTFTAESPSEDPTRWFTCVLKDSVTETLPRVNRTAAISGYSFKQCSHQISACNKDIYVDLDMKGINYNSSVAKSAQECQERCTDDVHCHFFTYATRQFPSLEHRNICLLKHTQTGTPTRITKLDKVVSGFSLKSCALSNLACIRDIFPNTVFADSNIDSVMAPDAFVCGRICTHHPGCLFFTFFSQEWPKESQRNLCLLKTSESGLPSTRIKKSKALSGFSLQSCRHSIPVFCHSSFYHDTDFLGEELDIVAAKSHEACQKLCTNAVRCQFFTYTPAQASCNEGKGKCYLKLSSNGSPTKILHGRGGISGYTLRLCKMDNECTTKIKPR
Sequence of Coagulation factor XI (P03951 388-625 limits assumed): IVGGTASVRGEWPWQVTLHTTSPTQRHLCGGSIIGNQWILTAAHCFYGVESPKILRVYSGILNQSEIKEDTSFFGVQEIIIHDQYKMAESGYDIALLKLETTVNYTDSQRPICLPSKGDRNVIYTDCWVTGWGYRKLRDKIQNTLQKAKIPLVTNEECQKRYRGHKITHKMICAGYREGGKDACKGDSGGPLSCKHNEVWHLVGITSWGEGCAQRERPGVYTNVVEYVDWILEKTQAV

[5] = target: Plasma kallikrein (Homo sapiens, UniProt P03952); assay: Inhibition of human plasma kallikrein using D-Pro-Phe-Arg-pNA as substrate preincubated for 30 mins followed by substrate addition; assay type: cell-free
Sequence of Plasma kallikrein (P03952 20-390 limits assumed): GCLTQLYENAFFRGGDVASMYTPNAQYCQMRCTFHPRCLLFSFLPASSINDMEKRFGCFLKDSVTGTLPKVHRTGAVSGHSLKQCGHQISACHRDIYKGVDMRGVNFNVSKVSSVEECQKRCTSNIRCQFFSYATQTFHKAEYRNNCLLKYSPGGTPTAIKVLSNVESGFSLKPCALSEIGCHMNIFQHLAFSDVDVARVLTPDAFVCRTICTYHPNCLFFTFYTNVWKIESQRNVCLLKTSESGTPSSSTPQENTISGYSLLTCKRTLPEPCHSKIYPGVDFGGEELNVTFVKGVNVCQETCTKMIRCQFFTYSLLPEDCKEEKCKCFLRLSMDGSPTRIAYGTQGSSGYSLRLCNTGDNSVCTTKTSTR
Sequence of Plasma kallikrein (P03952 391-638 limits assumed): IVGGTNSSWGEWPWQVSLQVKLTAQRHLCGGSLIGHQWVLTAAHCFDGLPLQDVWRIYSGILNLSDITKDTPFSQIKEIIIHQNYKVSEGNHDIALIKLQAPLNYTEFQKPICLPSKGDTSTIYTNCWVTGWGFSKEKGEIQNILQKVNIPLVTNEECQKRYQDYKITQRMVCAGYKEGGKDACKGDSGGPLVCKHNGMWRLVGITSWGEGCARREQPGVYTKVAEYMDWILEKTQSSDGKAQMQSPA

[6] = target: Prothrombin (Homo sapiens, UniProt P00734); assay: Inhibition of alpha-thrombin (unknown origin) using D-Phe-Pip-Arg-pNA as substrate preincubated for 30 mins followed by substrate addition
[7] = target: Coagulation factor X (Homo sapiens, UniProt P00742); assay: Inhibition of factor 10a (unknown origin) using N-Z-D-Arg-Gly-Arg-pNA as substrate preincubated for 30 mins followed by substrate addition
Sequence of Coagulation factor X (P00742 41-179 limits assumed): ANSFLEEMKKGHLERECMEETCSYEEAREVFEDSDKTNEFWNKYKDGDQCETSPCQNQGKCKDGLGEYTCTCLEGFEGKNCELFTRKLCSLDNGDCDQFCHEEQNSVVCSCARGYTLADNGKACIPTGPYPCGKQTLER
Sequence of Coagulation factor X (P00742 235-488 limits assumed): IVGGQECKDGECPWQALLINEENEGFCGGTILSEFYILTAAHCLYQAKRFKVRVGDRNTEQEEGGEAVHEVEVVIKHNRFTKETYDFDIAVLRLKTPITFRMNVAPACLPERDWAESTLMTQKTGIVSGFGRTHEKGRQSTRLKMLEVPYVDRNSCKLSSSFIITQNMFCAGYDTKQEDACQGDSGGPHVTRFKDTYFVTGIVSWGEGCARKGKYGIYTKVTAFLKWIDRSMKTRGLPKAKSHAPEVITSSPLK

[8] = Half life in rat liver microsomes in presence of NADPH by LC/MS/MS analysis; assay type: ADME
[9] = target: Plasminogen (Homo sapiens, UniProt P00747); assay: Inhibition of Lys-plasmin (unknown origin) using Tosyl-Gly-Pro-Lys-4-nitranilide as substrate preincubated for 30 mins followed by substrate addition
Sequence of Plasminogen (P00747 97-580 limits assumed): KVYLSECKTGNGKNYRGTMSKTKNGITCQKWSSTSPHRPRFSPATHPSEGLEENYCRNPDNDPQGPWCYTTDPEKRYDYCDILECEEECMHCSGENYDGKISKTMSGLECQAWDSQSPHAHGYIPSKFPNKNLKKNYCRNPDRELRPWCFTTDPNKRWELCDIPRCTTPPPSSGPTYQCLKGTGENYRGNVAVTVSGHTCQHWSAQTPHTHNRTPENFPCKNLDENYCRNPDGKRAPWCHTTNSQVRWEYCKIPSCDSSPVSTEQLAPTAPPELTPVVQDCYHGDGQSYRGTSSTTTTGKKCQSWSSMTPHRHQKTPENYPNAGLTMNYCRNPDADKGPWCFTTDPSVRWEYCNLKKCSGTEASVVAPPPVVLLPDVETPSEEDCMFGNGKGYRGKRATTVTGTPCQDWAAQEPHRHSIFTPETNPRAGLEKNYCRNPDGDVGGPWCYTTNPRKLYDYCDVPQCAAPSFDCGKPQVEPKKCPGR
Sequence of Plasminogen (P00747 581-810 limits assumed): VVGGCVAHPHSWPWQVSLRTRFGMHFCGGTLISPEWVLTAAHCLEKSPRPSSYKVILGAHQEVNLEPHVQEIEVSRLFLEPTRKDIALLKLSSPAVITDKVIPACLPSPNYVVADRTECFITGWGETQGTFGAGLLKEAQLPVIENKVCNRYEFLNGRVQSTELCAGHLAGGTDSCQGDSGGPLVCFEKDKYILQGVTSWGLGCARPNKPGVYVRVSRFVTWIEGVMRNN

[10] = Apparent permeability across MDCK cells at 1 uM; assay type: ADME, cell-based, Canis lupus familiaris; settings: dog
[11] = Cmax in Sprague-Dawley rat plasma at 20 mg/kg administered via oral gavage measured up to 24 hrs by LC-MS/MS analysis; assay type: ADME, organism-based; design: dose 20 mg/kg, route oral
[12] = Oral bioavailability in Sprague-Dawley rat plasma at 20 mg/kg administered via gavage measured up to 24 hrs by LC-MS/MS analysis; assay type: ADME, organism-based

Sequence of Tissue-type plasminogen activator (P00750 whole entry): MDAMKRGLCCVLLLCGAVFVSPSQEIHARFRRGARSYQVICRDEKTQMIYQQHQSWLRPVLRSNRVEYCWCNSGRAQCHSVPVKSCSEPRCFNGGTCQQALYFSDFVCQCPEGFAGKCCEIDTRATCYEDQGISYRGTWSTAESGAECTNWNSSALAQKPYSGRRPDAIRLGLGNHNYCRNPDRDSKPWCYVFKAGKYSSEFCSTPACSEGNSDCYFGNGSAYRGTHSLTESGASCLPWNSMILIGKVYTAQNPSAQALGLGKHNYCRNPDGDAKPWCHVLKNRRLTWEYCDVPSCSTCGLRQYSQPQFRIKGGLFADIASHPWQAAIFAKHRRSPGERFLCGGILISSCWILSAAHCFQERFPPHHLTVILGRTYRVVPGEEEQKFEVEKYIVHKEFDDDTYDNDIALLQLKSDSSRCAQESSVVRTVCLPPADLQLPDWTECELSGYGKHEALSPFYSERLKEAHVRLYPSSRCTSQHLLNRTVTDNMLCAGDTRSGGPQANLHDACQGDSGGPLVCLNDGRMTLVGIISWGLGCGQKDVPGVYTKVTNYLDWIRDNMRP

IC50 [1] | IC50 [2] | IC50 [3] | IC50 [4] | IC50 [5] | IC50 [6] | IC50 [7] | half-life [8] | IC50 [9] | Papp at 1 µM [10] | Cmax [11] | bioavailability [12] | SMILES
> 200 µM | > 200 µM | > 200 µM | 11.7 µM | 0.0048 µM | > 200 µM | > 200 µM | < 5 min | 21.4 µM |  |  |  | Cc1nc(N)cc2c1CNC(=O)c1cnn(c1)Cc1ccc(Cn3cccn3)cc1OCCCC=CCCO2 (mixture of isomers)
 |  |  |  | 1.57 µM |  |  |  |  |  |  |  | Cc1nc(N)cc2c1CNC(=O)c1cnn(c1)Cc1ccc(Cn3cccn3)cc1OCC/C=C\CCO2
> 200 µM | > 200 µM | > 200 µM | 12.7 µM | 0.153 µM | > 200 µM | > 200 µM | < 5 min | 9.97 µM | < 1 ×10⁻⁶ cm/s |  |  | Cc1nc(N)cc2c1CNC(=O)c1cnn(c1)Cc1ccc(Cn3cccn3)cc1OCC/C=C/CCCO2
> 200 µM | > 200 µM | > 200 µM | 3.61 µM | 0.002 µM | > 200 µM | > 200 µM | < 5 min | > 200 µM | < 1 ×10⁻⁶ cm/s |  |  | Cc1nc(N)cc2c1CNC(=O)c1cnn(c1)Cc1ccc(Cn3cccn3)cc1OCCC/C=C/CCO2
> 1000 µM | 578 µM | > 1000 µM | 106 µM | 0.0024 µM | > 1000 µM | > 1000 µM | 48 min | > 1000 µM | < 1 ×10⁻⁶ cm/s | 25 ng/mL | 6% | Cc1nc(N)ccc1CNC(=O)c1cnn(Cc2ccc(Cn3cccn3)cc2)c1
 |  |  |  | > 3000 µM |  |  |  |  |  |  |  | Cc1cc(N)nc2c1CNC(=O)c1cnn(c1)Cc1ccc(Cn3cccn3)cc1OCC/C=C\CCO2
 |  |  |  | 53.2 µM |  |  |  |  |  |  |  | Cc1cc(N)nc2c1CNC(=O)c1cnn(c1)Cc1ccc(Cn3cccn3)cc1OCC/C=C/CCO2
 |  |  |  | 1.21 µM |  |  |  |  |  |  |  | Cc1nc(N)cc2c1CNC(=O)c1cnn(c1)Cc1ccc(Cn3cccn3)cc1OCC/C=C/CCO2
 |  |  |  | 8.31 µM |  |  |  |  |  |  |  | Cc1nc(N)cc2c1CNC(=O)c1cnn(c1)Cc1ccc(Cn3cccn3)cc1OCCCCCCO2
> 200 µM | > 200 µM | > 200 µM | 40.9 µM | 0.0423 µM | > 200 µM | > 200 µM | < 5 min | > 200 µM | < 1 ×10⁻⁶ cm/s |  |  | Cc1nc(N)cc2c1CNC(=O)c1cnn(c1)Cc1ccc(Cn3cccn3)cc1OCCC/C=C\CCO2

— ChEMBL document CHEMBL3875230, “Structure-Guided Design of Novel, Potent, and Selective Macrocyclic Plasma Kallikrein Inhibitors” (ACS Med Chem Lett, 2017)
